Measured values as given in patent US20050250677A1, “Glycopeptide antibiotic derivatives” (priority 2002, published 2005).
Read-outs that look alike come from different tables or passages of the source.

Columns and labels:
VZV (wild-type strains) = assay: Anti-VZV assay (wild-type strains): virus-induced cytopathicity in HEL cell cultures; format: cell-based, varicella-zoster virus; settings: HEL cell cultures
HIV-2(ROD) = assay: Inhibition of HIV-2 (ROD)-induced cytopathicity (giant cell formation) in CEM cells; format: cell-based; settings: read-out: EC50 HIV-2 (concentration required to inhibit HIV-induced giant cell formation by 50%); HIV-2, CEM cell cultures
Description: (§1) A variety of glycopeptide antibiotic derivatives of vancomycin, eremomycin and teicoplanin including their aglycon derivatives were evaluated for their inhibitory activity against HIV-1 (IIIB) and HIV-2(ROD) in CEM cell cultures.

[1] = test system: SARS virus (strain Frankfurt-1); assay: microbe, parasite or virus in culture; format: cell-based, human corona (SARS) virus; settings: SARS virus in Vero cells; read-out: EC50 SARS virus
[2] = test system: human lymphocyte Molt4/clone 8; assay: Cytostatic activity assay, Molt4/clone 8 cells; format: cell-based; settings: read-out: IC50 Molt4/C8 (compound concentration required to inhibit tumor cell proliferation by 50%)
murine leukemia L1210 = assay: Cytostatic activity assay, L1210 cells; format: cell-based; settings: read-out: IC50 L1210 (compound concentration required to inhibit tumor cell proliferation by 50%)
human lymphocyte CEM = assay: Cytostatic activity assay, CEM cells; format: cell-based; settings: read-out: IC50 CEM (compound concentration required to inhibit tumor cell proliferation by 50%)
HIV-1 (IIIB) = assay: Inhibition of HIV-1 (IIIB)-induced cytopathicity (giant cell formation) in CEM cells; format: cell-based; settings: read-out: EC50 HIV-1 (concentration required to inhibit HIV-induced giant cell formation by 50%); HIV-1, CEM cell cultures
Description: as §1

HEL cells [3] = settings: read-out: CC50 (HEL); HEL cells; anti-VZV table
Vero cells = settings: read-out: CC50 Vero
HEL cells [4] = settings: anti-VZV table
FCV = assay: Feline corona virus assay in Feline Crandel kidney cells (MTS); format: cell-based; settings: FCV in FCK cells; read-out: EC50 FCV
Description: Feline Crandel kidney cells were seeded in 96-well microtiter plates at 24,000 cells/well. Then, 24 hrs later, an appropriate inoculum of FCV is added together with 5-fold dilutions of the test compounds. After 4 days, a MTS/PMS solution was added to each well. Following a 90 min incubation period at 37° C., the optical density of the wells was read at 498 nm in a microplate reader.

FCK cells = settings: read-out: CC50 FCK; FCK cells
[5] = VZV strain OKA, read-out: EC50 VZV (OKA)
[6] = VZV strain YS, read-out: EC50 VZV (YS)

Row | SMILES | EC50 (VZV (wild-type strains); [5]) | EC50 (VZV (wild-type strains); [6]) | EC50 (HIV-2(ROD)) | EC50 [1] | IC50 [2] | IC50 (murine leukemia L1210) | IC50 (human lymphocyte CEM) | EC50 (HIV-1 (IIIB)) | CC50 (HEL cells [3]) | CC50 (Vero cells) | MTC (HEL) (HEL cells [4]) | EC50 (FCV) | CC50 (FCK cells)
1 | CN(C)CCCNC(=O)C1NC(=O)C2NC(=O)C(NC(=O)C3NC(=O)C4NC(=O)C(Cc5ccc(c(Cl)c5)Oc5cc3cc(c5O)Oc3ccc(cc3Cl)C2O)NC(=O)C(N)c2ccc(O)c(c2)Oc2cc(O)cc4c2)c2ccc(O)c(c2)-c2c1cc(O)c(CN1CCN(Cc3ccc(-c4ccccc4)cc3)CC1)c2O (centres unmarked) [Compound 28] | 2.5 µM | 2 µM | 8.5 ± 2.1 µM | 16 µM | > 500 µM | 318 ± 256 µM | > 500 µM | 3.5 ± 0.7 µM | 105 µM | > 100 µM | ≧5-20 μM | > 50 µM | 21 µM
2 | NCCCCCCNC(=O)C1NC(=O)C2NC(=O)C(NC(=O)C3NC(=O)C4NC(=O)C(Cc5ccc(c(Cl)c5)Oc5cc3cc(c5O)Oc3ccc(cc3Cl)C2O)NC(=O)C(N)c2ccc(O)c(c2)Oc2cc(O)cc4c2)c2ccc(O)c(c2)-c2c(O)cc(O)cc21 (centres unmarked) [Compound 41] | > 5 µM | 12 µM | 17.5 ± 3.5 µM | 44 µM | > 500 µM | > 500 µM | > 500 µM | 15 µM | 190 µM | > 100 µM | ≧20-50 μM | 21 µM | > 50 µM
3 | CC(NC(=O)C1NC(=O)C2NC(=O)C(NC(=O)C3NC(=O)C4NC(=O)C(Cc5ccc(c(Cl)c5)Oc5cc3cc(c5O)Oc3ccc(cc3Cl)C2O)NC(=O)C(N)c2ccc(O)c(c2)Oc2cc(O)cc4c2)c2ccc(O)c(c2)-c2c(O)cc(O)cc21)C12CC3CC(CC(C3)C1)C2 (centres unmarked) [Compound 160] |  |  | 7.5 ± 0.7 µM | 27 µM | 97 ± 10 µM | 92 ± 5 µM | 106 µM | 3.3 ± 1.4 µM |  | > 100 µM |  | 4.5 µM | 56 µM
4 | NC1C(=O)NC2Cc3ccc(c(Cl)c3)Oc3cc4cc(c3O)Oc3ccc(cc3Cl)C(O)C3NC(=O)C(NC(=O)C4NC(=O)C(NC2=O)c2cc(O)cc(c2)Oc2cc1ccc2O)c1ccc(O)c(c1)-c1c(O)cc(O)cc1C(C(=O)NCc1ccc(F)cc1)NC3=O (centres unmarked) [Compound 165] |  |  | 30 ± 7.1 µM | 26 µM | ≥ 250 µM | 240 ± 15 µM | > 250 µM | 9 ± 5.3 µM |  | > 100 µM |  | 11 µM | 80 µM
5 | NC1C(=O)NC2Cc3ccc(c(Cl)c3)Oc3cc4cc(c3O)Oc3ccc(cc3Cl)C(O)C3NC(=O)C(NC(=O)C4NC(=O)C(NC2=O)c2cc(O)cc(c2)Oc2cc1ccc2O)c1ccc(O)c(c1)-c1c(O)cc(O)cc1C(C(=O)NCC12CC4CC(CC(C4)C1)C2)NC3=O (centres unmarked) [Compound 166] |  |  | 7 µM | 31 µM | 112 ± 2 µM | 91 ± 2 µM | 125 ± 30 µM | 1.8 ± 0.58 µM |  | > 100 µM |  | 8.5 µM | 49 µM
6 | NC1C(=O)NC2Cc3ccc(c(Cl)c3)Oc3cc4cc(c3O)Oc3ccc(cc3Cl)C(O)C3NC(=O)C(NC(=O)C4NC(=O)C(NC2=O)c2cc(O)cc(c2)Oc2cc1ccc2O)c1ccc(O)c(c1)-c1c(O)cc(O)cc1C(C(=O)N(C(=O)NC1CCCCC1)C1CCCCC1)NC3=O (centres unmarked) [Compound 167] |  |  | 10 ± 2.8 µM | 47 µM | 132 ± 9 µM | 130 ± 1 µM | 165 ± 34 µM | 6 ± 2.6 µM |  | > 100 µM |  | 7.7 µM | 62 µM
